Read-outs that look alike come from different tables or passages of the source.
How the values were obtained:
[1] = tested on: platelet activating factor (PAF); assay: PAF Induced Bronchoconstriction Assay; assay type: in vivo, guinea pig; details: for ED50: Cavia porcellus, Platelet, read-out: PAF-induced bronchoconstriction ID50; for antagonist activity against bronchoconstriction induced by PAF or LTD4: administered IV, statement covers both PAF and LTD4; for PAF-induced bronchoconstriction, percent inhibition: 10 mg/kg
Protocol: (§1) The relative potency (ID50 values) of test compounds administered by the intravenous and oral route was determined by administering increasing doses of test compound. For determination of the time course of inhibition for various compounds, the time between administration of compound and challenge with LTD was varied. The time course of activity was calculated as the time when inhibition decreased to 40%.
Male animals (Hartlet Strain, 400-500 g were anesthetized with urethane (2 g/kg, i.p.). Each animals' trachea was cannulated and the guinea pigs were respirated using a Harvard small animal rodent respirator (3.0 cc stroke volume, 40 breaths per min.). Tracheal pressure was recorded from a cannula inserted in the trachea and connected to a Statham pressure transducer.
The jugular vein was cannulated for administering compounds. Spontaneous breathing was arrested with succinylcholine (1.2 mg/kg, i.v.) administered 2 minutes prior to intravenous injection of platelet activating factor PAF).
For the intravenous testing, the guinea pig is given a 1-minute pretreatment with propranolol at a dose of 0.1 mg/kg intravenously. The test compound is administered with a 1 minute pretreatment prior to intravenous challenge with PAF. The animal is then challenged with a 1 μg/kg intravenous dose of PAF and the change in tracheal pressure is measured.
For the oral testing, the procedure includes a 2-hour pretreatment period with the test compound administered through an oral gavage tube. Propranolol or succinylcholine and PAF are administered intravenously, and the change in tracheal pressure measured.
The change in tracheal pressure is determined by subtracting the steady state baseline achieved after administration of succinylcholine from the peak bronchoconstriction seen after challenge with PAF. The mean is calculated for each test compound and compared to the mean of the control animals to give the percent inhibition of bronchoconstriction. The standard error is calculated as the standard error of the mean.
(§2) The compounds listed below were evaluated for antagonist activity against bronchoconstriction induced by PAF or LTD4. Comparative data for a known LTD4 antagonist (Compound B) and a known PAF antagonist (Compound A) are also shown.
(§3) Compounds C, D and E were administered orally at a dose of 10 mg/kg.

leukotriene D4 (LTD4) = assay: Leukotriene-induced bronchoconstriction in guinea pigs, in vivo leukotriene D4 (LTD) antagonist test; set-up: species or system guinea pig (Hartley strain); details: for ED50: Cavia porcellus, read-out: LTD4-induced bronchoconstriction ID50
Protocol: Male guinea pigs (Hartley strain Charles River) weighing 300-500 g were anesthetized with urethane (~2 g/kg) intraperitoneally and a polyethylene cannula was inserted into the jugular vein for intravenous drug administration. Tracheal pressure (cm of H2 O) was recorded from a Statham pressure transducer (P 32 AA). Propranolol was administered 5 minutes prior to challenge with LTD. Two minutes later spontaneous breathing was arrested with succinylcholine chloride (1.2 mg/kg) administered intravenously, and the animals were ventilated with a Harvard (Model #680) small animal respirator set at 40 breaths/min and 4.0 cc stroke volume. Control vehicle or test drug was administered through the cannula into the jugular vein 1 minute before the animals were challenged intravenously with a maximum constrictory dose of LTD (25 μg/kg) given intravenously. The change in tracheal pressure was averaged for control and drug-treated animals and percent inhibition was calculated. For determination of oral activity, animals were dosed with test compound or vehicle two hours prior to challenge with LTD (25 μg/kg, i.v.).
as §1, §2, §3

[2] = 1 min, iv, 1 minute pretreatment, PAF 1 μg/kg i.v.
[3] = 1 min, iv, 1 minute before LTD 25 μg/kg i.v.
[4] = po, 10 mg/kg, two hours prior to LTD 25 μg/kg i.v.

| SMILES | ED50 [1, 2] [mg/kg] | ED50 ([1]; po, 2-hour pretreatment) [mg/kg] | LTD4-induced bronchoconstriction ID50 (leukotriene D4 (LTD4); iv, 1 minute before LTD 25 μg/kg i.v.) | LTD4-induced bronchoconstriction ID50 (leukotriene D4 (LTD4); po, two hours prior to LTD 25 μg/kg i.v.) | PAF-induced bronchoconstriction ID50 ([1]; iv, 1 minute pretreatment, PAF 1 μg/kg i.v.) | PAF-induced bronchoconstriction ID50 ([1]; po, 2-hour pretreatment) | ED50 (leukotriene D4 (LTD4); [3]) [mg/kg] | ED50 (leukotriene D4 (LTD4); 2 h, po, two hours prior to LTD 25 μg/kg i.v.) [mg/kg] | antagonist activity against bronchoconstriction induced by PAF or LTD4 [1] | PAF-induced bronchoconstriction, percent inhibition ([1]; po, 2-hour pretreatment) [%] | LTD4-induced bronchoconstriction, percent inhibition (leukotriene D4 (LTD4); [4]) [%] | LTD4-induced bronchoconstriction, percent inhibition (leukotriene D4 (LTD4); iv column, iv dose not given) [%] |
| --- | --- | --- | --- | --- | --- | --- | --- | --- | --- | --- | --- | --- |
| Cc1nnc2n1-c1sc(C#CCn3c(=O)c4ccccc4c4ccccc43)cc1C(c1ccccc1Cl)=NC2 [Compound A, 5-{3-[4-(2-Chlorophenyl)-9-methyl-6H-thieno[3,2f][1,2,4]triazolo[4,3-a][1,4]diazepin-2-yl]-2-propynyl}phenanthridin-6(5H)-one, reference compound] | 0.02 | 0.12 | Not Active | Not Active | – | – | – | – | – | – | – | – |
| CCC(CC)(CC(=O)Nc1cccc(/C=C/c2nc(C3CCC3)cs2)c1)C(=O)O [Compound B, (E)-4-[3-[2-(4-Cyclobutyl-2-thiazolyl)ethenyl]phenylamino]2,2-diethyl-4-oxobutanoic acid, reference compound] | – | – | – | – | Not Active | Not Active | 0.13 | 0.12 | – | – | – | – |
| Cc1nnc2n1-c1sc(CCc3ccc(CC(=O)Nc4cccc(/C=C/c5nc(C6CCC6)cs5)c4)c(C(=O)O)c3)cc1C(c1ccccc1Cl)=NC2.O [Compound C, (E)-5-[2-[4-(2-chlorophenyl)-9-methyl-6H-thieno-[3,2-f][1,2,4]triazolo[4,3-a][1,4]diazepin-2-yl]ethyl]-2-[2-[3-[2-(4-cyclobutyl-2-thiazolyl)ethenyl]phenylamino]-2-oxoethyl]-benzoic acid monohydrate] | 0.02 | – | – | – | – | – | 0.01 | – | very potent dual acting antagonists | 37 ± 1 | 48 ± 8 | – |
| C=CCNC(=O)c1cc(CCc2cc3c(s2)-n2c(C)nnc2CN=C3c2ccccc2Cl)ccc1CC(=O)Nc1cccc(/C=C/c2nc(C3CCC3)cs2)c1 [Compound D, (E)-4-[2-[4-(2-Chlorophenyl)-9-methyl-6H-thieno-[3,2-f][1,2,4]triazolo[4,3-a][1,4]diazepin-2-yl]ethyl]-N-[3-[2-(4-cyclobutyl-2-thiazolyl)ethenyl]phenyl]-2-[(2-propenylamino)-carbonyl]benzeneacetamide] | 0.02 | – | – | – | – | – | 0.08 | – | very potent dual acting antagonists | 65 ± 1 | 44 ± 15 | – |
| CCOC(=O)c1cc(CCc2cc3c(s2)-n2c(C)nnc2CN=C3c2ccccc2Cl)ccc1CC(=O)Nc1cccc(/C=C/c2nc(C3CCC3)cs2)c1 [Compound E, (E)-5-[2-[4-(2-Chlorophenyl)-9-methyl-6H-thieno-[3,2-f][1,2,4]triazolo[4,3-a][1,4]diazepin-2-yl]ethyl]-2-[2-[3-[2-(4-cyclobutyl-2-thiazolyl)ethenyl]phenylamino]-2-oxoethyl]-benzoic acid ethyl ester] | 0.02 | – | – | – | – | – | – | – | – | 14 ± 9 | – | 46 ± 7 |
